# Earlier results in patent US20060105961A1 (Pharmacia Corporation, priority 2002, published 2006).
# Tested on: tumor
# Details: mice after radiotherapy
compound,measurement,value
COc1ccc2c(c1)c(CC(=O)O)c(C)n2C(=O)c1ccc(Cl)cc1 [indomethacin],tumor cure rate,increases the tumor cure rate
same,tumor growth delay,prolongs tumor growth delay
